Measurements as given in patent publication US20250345492A1, “AN ANTIBACTERIAL POLYPEPTIDE COMPOUND, A MEDICAL DEVICE, HYDROGEL AND USE THEREOF” (priority 2020, published 2025).
Ends that are not written are not given here.

Experiments:
[1] = system: Bacillus subtilis (ATCC 23857); settings: ATCC 23857
From the text: (§1) With respect to the determination of antibacterial activity and antifungal activity of the antibacterial polypeptide compounds, the bacterial strains employed included: E. coli (ATCC 25922), E. coli (ATCC 43837), Pseudomonas aeruginosa (ATCC 27853), Klebsiella pneumoniae (ATCC 700603), Cronobacter sakazakii (ATCC 29544), Staphylococcus aureus (ATCC 29213), Bacillus subtilis (ATCC 23857) and Staphylococcus epidermidis (ATCC 12228); and the fungal strains employed included Candida albicans (ATCC 14053), Candida glabrata (ATCC 2001), Candida parapsilosis (ATCC 22019), Candida tropicalis (ATCC 750) and Candida krusei (ATCC 6258), all of which were standard strains from American Type Culture Collection. In addition, drug-resistant strains S-1a, S-2a, S-3a, S-4a, E-1b, E-2b, E-3b, E-4b, E-5b, P-1c, P-2c, P-3c, P-4c, P-5c, and clinically isolated fungal strains Candida glabrata 2-1 and Candida albicans 14-1, 14-2 and 14-3 were employed, all which were clinically isolated.
(§2) Simply, a proper amount of the cryopreserved bacterium or fungus was added to fresh MH/SD medium, and cultured on a shaker overnight at 180 rpm at 37° C. The obtained cells were seeded again and cultured on a shaker for 4-5 hours to obtain cells in logarithmic phase. The resulting cells were added to a 96-well plate (1×10^5 CFU/ml, 100 μL/well), and then 100 μL of polypeptide with different concentrations (1-256 μM) twice the final concentrations was added to corresponding well according to the 2-fold serial dilution method. The fresh medium was used as a negative control, which was prepared in triplicate for each concentration. After dosing, the 96-well plate was placed in an incubator at constant 37° C. and humidity for 12 hours to observe the results. According to naked eye observations, the concentration of the compound in the first transparent well following the turbid wells was recorded as the MIC of the compound, namely, the MIC value of the compound to the bacterium or fungus.

C. albicans ATCC14053 = settings: ATCC14053
From the text: as §1, §2

C. glabrata ATCC22019 = settings: ATCC22019
From the text: as §1, §2

C. krusei ATCC6258 = settings: ATCC6258
From the text: as §1, §2

C. parapsilosis ATCC2001 = settings: ATCC2001
From the text: as §1, §2

C. tropicalis ATCC750 = settings: ATCC750
From the text: as §1, §2

[2] = system: Cronobacter sakazakii (ATCC 29544); settings: ATCC 29544
From the text: as §1, §2

[3] = system: E-1b, clinical isolated drug-resistant strain ESBL; settings: strain E-1b (ESBL)
From the text: as §1, §2

[4] = system: E-2b, clinical isolated drug-resistant strain ESBL; settings: strain E-2b (ESBL)
From the text: as §1, §2

[5] = system: E-3b, clinical isolated drug-resistant strain ESBL; settings: strain E-3b (ESBL)
From the text: as §1, §2

[6] = system: E-4b, clinical isolated drug-resistant strain ESBL; settings: strain E-4b (ESBL)
From the text: as §1, §2

[7] = system: E-5b, clinical isolated drug-resistant strain ESBL; settings: strain E-5b (ESBL)
From the text: as §1, §2

E. coli (ATCC 25922) = settings: ATCC 25922
From the text: as §1, §2

[8] = system: P-1c, clinical isolated drug-resistant strain PA; settings: strain P-1c (PA)
From the text: as §1, §2

[9] = system: P-2c, clinical isolated drug-resistant strain PA; settings: strain P-2c (PA)
From the text: as §1, §2

[10] = system: P-3c, clinical isolated drug-resistant strain PA; settings: strain P-3c (PA)
From the text: as §1, §2

[11] = system: P-4c, clinical isolated drug-resistant strain PA; settings: strain P-4c (PA)
From the text: as §1, §2

[12] = system: P-5c, clinical isolated drug-resistant strain PA; settings: strain P-5c (PA)
From the text: as §1, §2

[13] = system: Pseudomonas aeruginosa (ATCC 27853); settings: standard strain
From the text: as §1, §2

[14] = system: S-1a, clinical isolated drug-resistant strain MRSA; settings: strain S-1a (MRSA)
From the text: as §1, §2

[15] = system: S-2a, clinical isolated drug-resistant strain MRSA; settings: strain S-2a (MRSA)
From the text: as §1, §2

[16] = system: S-3a, clinical isolated drug-resistant strain MRSA; settings: strain S-3a (MRSA)
From the text: as §1, §2

[17] = system: S-4a, clinical isolated drug-resistant strain MRSA; settings: strain S-4a (MRSA)
From the text: as §1, §2

[18] = system: Staphylococcus aureus (ATCC 29213); settings: ATCC 29213
From the text: as §1, §2

[19] = system: Staphylococcus epidermidis (ATCC 12228); settings: ATCC 12228
From the text: as §1, §2

[20] = system: human cervical cancer cell Hela; assay: Cytotoxicity, MTT colorimetry; format: cell-based
Description: (§3) For cytotoxicity determination, the MTT colorimetry was used to evaluate the effects of the compounds on the proliferation of human cervical cancer cell Hela, human embryonic renal epithelial cell HEK293 and mouse mononuclear macrophage RAW264.7.
(§4) Taking compounds 2, 8, 9, 13 and 15 of the present invention as examples, the cytotoxicity of the antibacterial polypeptide compounds was analyzed. Three cell lines were employed for the present invention, namely human cervical cancer cell Hela, human embryonic renal epithelial cell HEK293 and mouse mononuclear macrophage RAW264.7. Hela cells were cultured in RPMI 1640 medium with 10% newborn calf serum, HEK293 cells and RAW264.7 cells were cultured in DMEM medium with 10% fetal bovine serum. Simply, cells (1×10^4 cells/well) were inoculated to a 96-well plate and incubated in an incubator set to 5% CO2 at 37° C. After 24 hours, compounds of different concentrations were added and incubated in the 5% CO2 incubator. After 24 hours, 20 μL of MTT solution with a concentration of 5 mg/mL was added to each well and incubated for 4 hours. After that, the medium was removed with a pipet, and 150 μL of DMSO added to dissolve the purple-blue formazan crystals. The solution was shaken in an oscillator for 5 mins before detecting the absorbance value at 570 nm using the ELISA reader, and then the survival rate was calculated with the formula: (OD dosing group/OD control group)×100% (n=3).

[21] = system: human embryonic renal epithelial cell HEK293; assay: Cytotoxicity, MTT colorimetry; format: cell-based
Description: as §3, §4

[22] = system: mouse mononuclear macrophage RAW264.7; assay: Cytotoxicity, MTT colorimetry; format: cell-based
Description: as §3, §4

Acute toxicity in mice = assay: Acute toxicity in mice; design: species or system Kunming mice; settings: mouse, in vivo, ip, intraperitoneal injection, Karber method
Description: Acute toxicity of the compounds was determined by measuring the acute toxicity in mice with the compounds.
Taking compounds 2, 8, 9, 13 and 15 of the present invention as examples, […]. The mice used in this test were Kunming mice, which were placed in constant-temperature environment (22±1° C.) and could freely obtain water and food. Simply, 132 healthy Kunming mice were randomly divided into 11 groups, with 12 mice in each group (half male and half female), wherein, 5 groups were intraperitoneally injected with 0.2 ml of the compounds of different doses (100-1000 mg/kg), and the control group was intraperitoneally injected with normal saline. In this experiment, melittin was used as a reference control, and the other 5 groups were intraperitoneally injected with melittin of different doses (10-32 mg/kg). The state of mice was observed and recorded after 2 hours of administration, and then observed twice a day for 14 days, and the survival rates of the mice were recorded.

Row | Molecule | MIC B. subtilis ATCC23857 [1] | MIC C. albicans ATCC14053 (C. albicans ATCC14053) | MIC C. glabrata ATCC22019 (C. glabrata ATCC22019) | MIC C. krusei ATCC6258 (C. krusei ATCC6258) | MIC C. parapsilosis ATCC2001 (C. parapsilosis ATCC2001) | MIC C. tropicalis ATCC750 (C. tropicalis ATCC750) | MIC C. sakazakii ATCC29544 [2] | MIC [3] | MIC [4] | MIC [5] | MIC [6] | MIC [7] | MIC C. coli ATCC25922 (E. coli (ATCC 25922)) | MIC [8] | MIC [9] | MIC [10] | MIC [11] | MIC [12] | MIC P. aerugmosa ATCC27853 [13] | MIC [14] | other results
1 | PWRLRLHL-NH2 [Compound 13] | 8 µM | 32 µM | 8 µM | 32 µM | 8 µM | 8 µM | 8 µM | 8 µM | 8 µM | 4 µM | 8 µM | 4 µM | 8 µM | 8 µM | 4 µM | 4 µM | 4 µM | 4 µM | 4 µM | 32 µM | MIC [15]: 32 µM; MIC [16]: 32 µM; MIC [17]: 32 µM; MIC S. aureus ATCC29213 [18]: 32 µM; MIC S. epidermidis ATCC12228 [19]: 16 µM; effect on proliferation (inhibitory activity) [20]: no inhibitory activity; effect on proliferation (inhibitory activity) [21]: no inhibitory activity; effect on proliferation (inhibitory activity) [22]: no inhibitory activity; LD50 (Acute toxicity in mice): > 1000 mg/kg
2 | PWKLSLHL-NH2 [Compound 8] | 16 µM | 16 µM | 16 µM | 32 µM | 16 µM | 16 µM | 16 µM | 16 µM | 16 µM | 16 µM | 16 µM | 16 µM | 16 µM | 16 µM | 8 µM | 8 µM | 8 µM | 8 µM | 16 µM | 64 µM | MIC [15]: 64 µM; MIC [16]: 64 µM; MIC [17]: 64 µM; MIC S. aureus ATCC29213 [18]: 64 µM; MIC S. epidermidis ATCC12228 [19]: 32 µM; effect on proliferation (inhibitory activity) [20]: no inhibitory activity; effect on proliferation (inhibitory activity) [21]: no inhibitory activity; effect on proliferation (inhibitory activity) [22]: no inhibitory activity; LD50 (Acute toxicity in mice): > 1000 mg/kg
3 | PWRLRLRL-NH2 [Compound 15] | 4 µM | 4 µM | 4 µM | 16 µM | 4 µM | 4 µM | 8 µM | 4 µM | 4 µM | 4 µM | 4 µM | 4 µM | 4 µM | 8 µM | 8 µM | 8 µM | 8 µM | 8 µM | 8 µM | 8 µM | MIC [15]: 8 µM; MIC [16]: 8 µM; MIC [17]: 8 µM; MIC S. aureus ATCC29213 [18]: 8 µM; MIC S. epidermidis ATCC12228 [19]: 8 µM; effect on proliferation (inhibitory activity) [20]: no inhibitory activity; effect on proliferation (inhibitory activity) [21]: no inhibitory activity; effect on proliferation (inhibitory activity) [22]: no inhibitory activity; LD50 (Acute toxicity in mice): > 1000 mg/kg
4 | CC[C@H](C)[C@H](NC(=O)CN)C(=O)NCC(=O)N[C@@H](C)C(=O)N[C@H](C(=O)N[C@@H](CC(C)C)C(=O)N[C@@H](CCCCN)C(=O)N[C@H](C(=O)N[C@@H](CC(C)C)C(=O)N[C@H](C(=O)N[C@H](C(=O)NCC(=O)N[C@@H](CC(C)C)C(=O)N1CCC[C@H]1C(=O)N[C@@H](C)C(=O)N[C@@H](CC(C)C)C(=O)N[C@H](C(=O)N[C@@H](CO)C(=O)N[C@@H](Cc1c[nH]c2ccccc12)C(=O)N[C@H](C(=O)N[C@@H](CCCCN)C(=O)N[C@@H](CCCNC(=N)N)C(=O)N[C@@H](CCCCN)C(=O)N[C@@H](CCCNC(=N)N)C(=O)N[C@@H](CCC(N)=O)C(=O)N[C@@H](CCC(N)=O)C(N)=O)[C@@H](C)CC)[C@@H](C)CC)[C@@H](C)O)[C@@H](C)O)C(C)C)C(C)C [melittin magainin, melittin, reference compound] |  |  |  |  |  |  |  |  |  |  |  |  |  |  |  |  |  |  |  |  | LD50 at 14 days (Acute toxicity in mice; both sexes, Kunming): 20 mg/kg
